Laboratory results reported in ChEMBL document CHEMBL4371081, “The role of N-terminal heterocycles in hydrogen bonding to α-chymotrypsin” (Bioorg Med Chem Lett, 2019).
Active and inactive are the calls of the source. The rule behind the calls is not given here. Where a SMILES comes first, the peptide text is derived from it. [ ]: non-standard residue; d: D form. The star is where a group is joined. ξ: configuration not given here. Phe(ol) = N[C@H](CO)Cc1ccccc1; ξF = NC(Cc1ccccc1)C(=O)O; Boc = CC(C)(C)OC(=O)*

Experiments:
Homo sapiens = species on record: Homo sapiens; assay: Inhibition of alpha-chymotrypsin (unknown origin) at 500 uM using Ala-Ala-Phe-7-AMC as substrate measured over 10 mins by spectrophotometric method
[1] = Inhibition of alpha-chymotrypsin (unknown origin) using Ala-Ala-Phe-7-AMC as substrate measured over 10 mins by spectrophotometric method; set-up: species or system Homo sapiens

inhibition (Homo sapiens) | IC50 [1] [µM] | SMILES
inactive |  | CCOC(=O)c1ccc(C(=O)N[C@@H](CC(C)C)C(=O)N[C@H](CO)Cc2ccccc2)o1
inactive |  | COC(=O)c1cccc(C(=O)N[C@@H](CC(C)C)C(=O)N[C@H](CO)Cc2ccccc2)n1
inactive |  | COC(=O)c1ccc(C(=O)N[C@@H](CC(C)C)C(=O)N[C@H](CO)Cc2ccccc2)s1
 | 1.1 | COC(=O)c1ccc(C(=O)N[C@@H](CC(C)C)C(=O)NC(C=O)Cc2ccccc2)[nH]1 (mixture of isomers)
inactive |  | COC(=O)c1ccc(C(=O)N[C@@H](CC(C)C)C(=O)N[C@H](CO)Cc2ccccc2)[nH]1
inactive |  | COC(=O)c1ccc(C(=O)N[C@@H](CC(C)C)C(=O)N[C@H](CO)Cc2ccccc2)o1

The next lines start with the compound.

SMILES | inhibition (Homo sapiens) | IC50 [1] [µM]
COC(=O)c1cccc(C(=O)N[C@@H](CC(C)C)C(=O)NC(C=O)Cc2ccccc2)n1 (stereo partly specified) |  | 35
CC(C)C[C@H](NC(=O)[C@H](C)NC(=O)OC(C)(C)C)C(=O)N[C@H](CO)Cc1ccccc1 (Boc-Ala-Leu-[Phe(ol)]) | inactive | 
CC(C)C[C@H](NC(=O)[C@H](C)NC(=O)OC(C)(C)C)C(=O)NC(C=O)Cc1ccccc1 (stereo partly drawn) (Boc-Ala-Leu-[ξF]-aldehyde) |  | 1.4
COC(=O)c1ccc(C(=O)N[C@@H](CC(C)C)C(=O)NC(C=O)Cc2ccccc2)o1 (mixture of isomers) |  | 36
COC(=O)c1ccc(C(=O)N[C@@H](CC(C)C)C(=O)NC(C=O)Cc2ccccc2)s1 (mixture of isomers) |  | 40
